The numbers were not newly measured in patent US8961477B2, “Delivery of immune response modifier compounds” (3M Innovative Properties Company, priority 2003, dated 2015), which cites them from elsewhere.

For data set [1] the following is noted: delivered systemically.
The target in another data set is T1, TLR 7 (Homo sapiens, UniProt Q9NYK1).
T1 construct: expressed in transfected cells
T1 sequence (Q9NYK1 27-1049): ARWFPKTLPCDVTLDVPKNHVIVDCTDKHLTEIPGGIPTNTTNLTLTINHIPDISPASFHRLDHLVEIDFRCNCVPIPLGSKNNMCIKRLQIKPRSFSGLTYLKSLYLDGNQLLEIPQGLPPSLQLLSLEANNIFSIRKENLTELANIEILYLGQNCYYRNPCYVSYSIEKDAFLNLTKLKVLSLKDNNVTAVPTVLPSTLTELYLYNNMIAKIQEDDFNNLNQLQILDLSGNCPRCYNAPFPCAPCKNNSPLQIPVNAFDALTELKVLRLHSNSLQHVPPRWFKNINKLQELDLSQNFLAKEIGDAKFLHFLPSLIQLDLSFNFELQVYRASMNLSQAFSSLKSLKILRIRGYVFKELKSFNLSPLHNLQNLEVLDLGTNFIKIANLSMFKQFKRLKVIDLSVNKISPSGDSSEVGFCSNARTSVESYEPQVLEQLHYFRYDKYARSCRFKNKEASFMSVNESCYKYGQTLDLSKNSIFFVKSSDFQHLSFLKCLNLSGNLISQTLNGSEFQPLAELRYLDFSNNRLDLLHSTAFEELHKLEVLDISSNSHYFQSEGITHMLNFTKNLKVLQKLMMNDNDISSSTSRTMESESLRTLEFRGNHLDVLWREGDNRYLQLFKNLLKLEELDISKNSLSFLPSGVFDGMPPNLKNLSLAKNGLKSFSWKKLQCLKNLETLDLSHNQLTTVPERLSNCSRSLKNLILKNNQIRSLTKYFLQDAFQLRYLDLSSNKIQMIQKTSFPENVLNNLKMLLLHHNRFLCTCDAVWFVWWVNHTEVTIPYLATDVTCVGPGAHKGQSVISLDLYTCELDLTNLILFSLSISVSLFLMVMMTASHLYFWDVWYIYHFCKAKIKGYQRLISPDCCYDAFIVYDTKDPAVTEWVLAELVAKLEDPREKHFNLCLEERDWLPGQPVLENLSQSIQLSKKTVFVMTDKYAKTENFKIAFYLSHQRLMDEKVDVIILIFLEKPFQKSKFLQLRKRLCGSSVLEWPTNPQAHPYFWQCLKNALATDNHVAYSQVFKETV
Conditions: statement in words, no data given.

The target in a further data set is T2, TLR 6 (Homo sapiens, UniProt Q9Y2C9).
T2 construct: expressed in transfected cells
T2 sequence (Q9Y2C9 32-796): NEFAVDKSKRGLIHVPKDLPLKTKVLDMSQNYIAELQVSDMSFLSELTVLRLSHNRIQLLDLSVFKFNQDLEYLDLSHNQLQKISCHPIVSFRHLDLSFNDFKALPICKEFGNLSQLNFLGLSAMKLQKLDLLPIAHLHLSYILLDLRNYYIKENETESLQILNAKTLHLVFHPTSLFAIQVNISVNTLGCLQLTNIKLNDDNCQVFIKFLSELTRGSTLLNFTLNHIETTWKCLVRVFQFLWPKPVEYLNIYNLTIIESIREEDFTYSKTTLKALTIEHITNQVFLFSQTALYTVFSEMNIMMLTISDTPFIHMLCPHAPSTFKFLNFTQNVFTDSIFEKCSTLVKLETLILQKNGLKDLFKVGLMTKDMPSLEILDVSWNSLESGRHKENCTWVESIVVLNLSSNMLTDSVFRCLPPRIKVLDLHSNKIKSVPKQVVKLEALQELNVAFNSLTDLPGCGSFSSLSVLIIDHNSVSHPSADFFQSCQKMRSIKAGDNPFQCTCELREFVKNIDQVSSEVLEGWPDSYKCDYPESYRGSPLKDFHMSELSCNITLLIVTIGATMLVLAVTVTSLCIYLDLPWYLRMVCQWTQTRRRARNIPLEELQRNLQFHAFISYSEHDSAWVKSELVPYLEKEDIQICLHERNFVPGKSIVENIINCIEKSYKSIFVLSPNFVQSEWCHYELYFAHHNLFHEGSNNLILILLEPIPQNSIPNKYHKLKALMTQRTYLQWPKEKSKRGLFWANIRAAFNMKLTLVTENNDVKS
To be noted: statement in words, no data given.

In the next data set the target is T3, TLR 8 (Homo sapiens, UniProt Q9NR97).
T3 construct: expressed in transfected cells
T3 sequence (Q9NR97 27-1041): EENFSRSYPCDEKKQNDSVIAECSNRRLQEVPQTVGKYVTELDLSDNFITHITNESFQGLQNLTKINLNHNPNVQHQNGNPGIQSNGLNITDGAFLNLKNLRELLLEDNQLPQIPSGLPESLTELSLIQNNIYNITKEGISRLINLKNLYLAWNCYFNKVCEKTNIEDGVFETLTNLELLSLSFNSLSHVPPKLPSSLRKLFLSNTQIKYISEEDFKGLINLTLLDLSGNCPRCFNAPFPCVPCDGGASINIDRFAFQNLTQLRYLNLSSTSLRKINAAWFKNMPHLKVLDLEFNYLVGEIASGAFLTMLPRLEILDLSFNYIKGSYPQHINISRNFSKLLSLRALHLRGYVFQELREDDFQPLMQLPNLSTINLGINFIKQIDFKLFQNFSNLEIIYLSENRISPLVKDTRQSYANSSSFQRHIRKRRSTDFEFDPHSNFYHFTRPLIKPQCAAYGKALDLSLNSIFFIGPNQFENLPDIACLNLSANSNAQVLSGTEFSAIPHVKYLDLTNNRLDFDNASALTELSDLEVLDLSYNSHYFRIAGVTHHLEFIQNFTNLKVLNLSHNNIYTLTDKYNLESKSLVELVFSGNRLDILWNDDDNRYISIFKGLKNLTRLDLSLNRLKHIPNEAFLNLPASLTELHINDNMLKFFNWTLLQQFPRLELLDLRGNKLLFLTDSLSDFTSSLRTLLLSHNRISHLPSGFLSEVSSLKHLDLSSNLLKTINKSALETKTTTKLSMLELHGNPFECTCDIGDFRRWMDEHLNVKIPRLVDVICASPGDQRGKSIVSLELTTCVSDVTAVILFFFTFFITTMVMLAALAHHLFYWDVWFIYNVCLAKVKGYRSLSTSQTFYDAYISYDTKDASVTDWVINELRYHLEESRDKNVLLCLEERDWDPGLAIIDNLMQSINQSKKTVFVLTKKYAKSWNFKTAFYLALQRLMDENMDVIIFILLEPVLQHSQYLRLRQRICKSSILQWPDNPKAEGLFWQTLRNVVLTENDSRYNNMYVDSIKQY
To be noted: statement in words, no data given.

Consider `CC(C)(O)Cn1cnc2c(N)nc3ccccc3c21` [4-amino-α,α-dimethyl-1H-imidazo[4,5-c]quinoline-1-ethanol], for which the “CNS effect compared to imiquimod” value in data set [1] is listed as “much lower CNS effect”. Besides, on TLR 7, the “TLR 7 agonist activity” value is “predominantly a TLR 7 agonist”. The “TLR 6 activity” value at TLR 6 is “TLR 6 activity”. The “TLR 8 agonist activity” value at TLR 8 is given as “not a substantial TLR 8 agonist”.
Regarding `CCOCc1nc2c(N)nc3c(c2n1CC(C)(C)O)CCCC3` [4-amino-2-(ethoxymethyl)-α,α-dimethyl-6,7,8,9-tetrahydro-1H-imidazo[4,5-c]quinoline-1-ethanol], on TLR 7, the “TLR 7 agonist activity” value is “TLR 7 and TLR 8 agonist”. Besides, the “TLR 8 agonist activity” value at TLR 8 is “TLR 7 and TLR 8 agonist”.
